Laboratory results as given in ChEMBL document CHEMBL2021794, “Synthesis, σ₁, σ₂-receptors binding affinity and antiproliferative action of new C1-substituted adamantanes” (Bioorg Med Chem, 2012).

Tests used:
[1] = Displacement of [3H]BTX-B from Na+ channel site 2 after 60 mins by liquid scintillation spectroscopy
IGROV-1 = experiment: Growth inhibition of human IGROV1 cells after 48 hrs by SRB assay; assay type: functional; settings: IGROV-1, 48 h
BXPC-3 = experiment: Growth inhibition of human BxPC3 cells after 48 hrs by SRB assay; assay type: functional; settings: BXPC-3, 48 h
MCF7 = experiment: Growth inhibition of human MCF7 cells after 48 hrs by SRB assay; assay type: functional; settings: MCF7, 48 h; for CC50: read-out: LC50 (the source's name)
SF-268 = experiment: Growth inhibition of human SF268 cells after 48 hrs by SRB assay; assay type: functional; settings: SF-268, 48 h; for CC50: read-out: LC50 (the source's name)
NCI-H460 = experiment: Growth inhibition of human NCI-H460 cells after 48 hrs by SRB assay; assay type: functional; settings: NCI-H460, 48 h
DU-145 = experiment: Growth inhibition of human DU145 cells after 48 hrs by SRB assay; assay type: functional; settings: DU-145, 48 h
LOX IMVI = experiment: Growth inhibition of human LOXIMVI cells after 48 hrs by SRB assay; assay type: functional
PC-3 = experiment: Growth inhibition of human PC3 cells after 48 hrs by SRB assay; assay type: functional; settings: PC-3, 48 h
DMS-114 = experiment: Growth inhibition of human DMS114 cells after 48 hrs by SRB assay; assay type: functional; settings: DMS-114, 48 h
[2] = Selectivity ratio of IC50 for human sigma-1 receptor to IC50 for rat sigma-2 receptor
HUVEC = experiment: (§1) Growth inhibition of HUVEC cells after 48 hrs by SRB assay; assay type: cell-based; settings: human, huvec, 48 h
[3] = as §1; assay type: cell-based; settings: human, HUVEC cells
NCI-H69 = experiment: Growth inhibition of human NCI-H69 cells after 48 hrs by SRB assay; assay type: functional; settings: NCI-H69, 48 h
[4] = target: Sigma non-opioid intracellular receptor 1 (Homo sapiens, UniProt Q99720); experiment: Displacement of [3H](+)pentazocine from sigma-1 receptor expressed in human Jurkat cell membranes after 2 hrs by liquid scintillation spectroscopy
Chain of Sigma non-opioid intracellular receptor 1 (Q99720 whole entry): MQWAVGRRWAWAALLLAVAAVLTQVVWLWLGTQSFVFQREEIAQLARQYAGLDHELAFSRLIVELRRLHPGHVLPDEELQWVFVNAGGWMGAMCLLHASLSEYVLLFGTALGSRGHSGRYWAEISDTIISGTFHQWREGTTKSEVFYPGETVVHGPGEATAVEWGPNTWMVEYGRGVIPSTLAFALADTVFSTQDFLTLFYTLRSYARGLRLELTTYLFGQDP

HCT-116 = experiment: Growth inhibition of human HCT116 cells after 48 hrs by SRB assay; assay type: functional; settings: HCT-116, 48 h; for CC50: read-out: LC50 (the source's name)
H69AR = experiment: Growth inhibition of human H69AR cells after 48 hrs by SRB assay; assay type: functional
U-251 = experiment: Growth inhibition of human U251 cells after 48 hrs by SRB assay; assay type: functional; settings: U-251, 48 h
SF-295 = experiment: Growth inhibition of human SF295 cells after 48 hrs by SRB assay; assay type: functional; settings: SF-295, 48 h
[5] = Growth inhibition of human MSC cells after 48 hrs by SRB assay; assay type: cell-based
[6] = Displacement of [3H](+)1-DTG from sigma-2 receptor expressed in rat cerebral cortex membranes after 2 hrs by liquid scintillation spectroscopy; assay type: cell membranes, Membrane
SK-HEP1 = experiment: Growth inhibition of human SKHEP1 cells after 48 hrs by SRB assay; assay type: functional; settings: SK-HEP1, 48 h
NHDF = experiment: (§2) Growth inhibition of NHDF cells after 48 hrs by SRB assay; assay type: cell-based; settings: human, nhdf, 48 h
[7] = as §2; assay type: cell-based; settings: human, NHDF cells
HCT-15 = experiment: Growth inhibition of human HCT15 cells after 48 hrs by SRB assay; assay type: functional; settings: HCT-15, 48 h
HL-60(TB) = experiment: Growth inhibition of human HL-60(TB) cells after 48 hrs by SRB assay; assay type: functional; settings: HL-60, 48 h
OVCAR-5 = experiment: Growth inhibition of human OVCAR5 cells after 48 hrs by SRB assay; assay type: functional; settings: OVCAR-5, 48 h; for CC50: read-out: LC50 (the source's name)
[8] = read-out: LC50 (the source's name)

**Q.** For `CCN1CCN(c2ccc(C(c3ccccc3)C34CC5CC(CC(C5)C3)C4)cc2)CC1` (stereo not given), which IC50 [1] is on record?
**A.** 0.7 µM

**Q.** And the GI50 (IGROV-1)?
**A.** 8 µM

**Q.** And the TGI (IGROV-1)?
**A.** 49 µM

**Q.** What about the CC50 (IGROV-1; [8]) of the same molecule?
**A.** 100 µM

**Q.** What about the GI50 (BXPC-3) of the same molecule?
**A.** 7.07 µM

**Q.** And the LC50 (BXPC-3)?
**A.** > 100 µM

**Q.** What about the TGI (BXPC-3) of the same molecule?
**A.** 41.6 µM

**Q.** What about the GI50 (MCF7) of the same molecule?
**A.** 9.23 µM

**Q.** What about the TGI (MCF7) of the same molecule?
**A.** 59 µM

**Q.** What about the CC50 (MCF7) of the same molecule?
**A.** 100 µM

**Q.** What about the GI50 (SF-268) of the same molecule?
**A.** 8.24 µM

**Q.** What about the TGI (SF-268) of the same molecule?
**A.** 53.5 µM

**Q.** And the CC50 (SF-268)?
**A.** 100 µM

**Q.** And the GI50 (NCI-H460)?
**A.** 5.77 µM

**Q.** What about the LC50 (concentration killing 50% of cells) (NCI-H460) of the same molecule?
**A.** 100 µM

**Q.** What about the TGI (NCI-H460) of the same molecule?
**A.** 9.44 µM

**Q.** What about the GI50 (DU-145) of the same molecule?
**A.** 17.8 µM

**Q.** And the TGI (DU-145)?
**A.** 58.7 µM

**Q.** What about the CC50 (DU-145; [8]) of the same molecule?
**A.** 99.6 µM

**Q.** What about the GI50 (LOX IMVI) of the same molecule?
**A.** 3.79 µM

**Q.** What about the LC50 (concentration killing 50% of cells) (LOX IMVI) of the same molecule?
**A.** 8.4 µM

**Q.** What about the TGI (LOX IMVI) of the same molecule?
**A.** 6.09 µM

**Q.** What about the GI50 (PC-3) of the same molecule?
**A.** 9.01 µM

**Q.** And the TGI (PC-3)?
**A.** 65.6 µM

**Q.** And the CC50 (PC-3; [8])?
**A.** 100 µM

**Q.** What about the GI50 (DMS-114) of the same molecule?
**A.** 6.05 µM

**Q.** And the TGI (DMS-114)?
**A.** 11.6 µM

**Q.** And the CC50 (DMS-114; [8])?
**A.** 20.3 µM

**Q.** And the Ratio IC50 [2]?
**A.** 1.4

**Q.** And the LC50 (HUVEC)?
**A.** 9.88 µM

**Q.** And the TGI (HUVEC)?
**A.** 6.72 µM

**Q.** And the GI50 at 48 h [3]?
**A.** 3.56 µM

**Q.** And the GI50 (NCI-H69)?
**A.** 5.54 µM

**Q.** What about the CC50 (NCI-H69; [8]) of the same molecule?
**A.** 100 µM

**Q.** And the IC50 [4]?
**A.** 0.0029 µM

**Q.** What about the GI50 (HCT-116) of the same molecule?
**A.** 6.39 µM

**Q.** What about the TGI (HCT-116) of the same molecule?
**A.** 32.9 µM

**Q.** What about the CC50 (HCT-116) of the same molecule?
**A.** 100 µM

**Q.** And the GI50 (H69AR)?
**A.** 4.75 µM

**Q.** What about the TGI (H69AR) of the same molecule?
**A.** 7.82 µM

**Q.** What about the CC50 (H69AR; [8]) of the same molecule?
**A.** 100 µM

**Q.** And the GI50 (U-251)?
**A.** 4.23 µM

**Q.** What about the TGI (U-251) of the same molecule?
**A.** 7.42 µM

**Q.** And the CC50 (U-251; [8])?
**A.** 12 µM

**Q.** What about the GI50 (SF-295) of the same molecule?
**A.** 19.6 µM

**Q.** And the TGI (SF-295)?
**A.** 50.9 µM

**Q.** What about the CC50 (SF-295; [8]) of the same molecule?
**A.** 82.2 µM

**Q.** What about the GI50 at 48 h ([5]; MSC cells) of the same molecule?
**A.** 19.5 µM

**Q.** And the LC50 ([5]; msc, 48 h)?
**A.** 100 µM

**Q.** And the TGI ([5]; msc, 48 h)?
**A.** 72 µM

**Q.** And the IC50 [6]?
**A.** 0.004 µM

**Q.** And the GI50 (SK-HEP1)?
**A.** 3.98 µM

**Q.** What about the TGI (SK-HEP1) of the same molecule?
**A.** 7.24 µM

**Q.** And the CC50 (SK-HEP1; [8])?
**A.** 29.8 µM

**Q.** What about the LC50 (NHDF) of the same molecule?
**A.** 100 µM

**Q.** What about the TGI (NHDF) of the same molecule?
**A.** 100 µM

**Q.** What about the GI50 at 48 h [7] of the same molecule?
**A.** 7.43 µM

**Q.** And the GI50 (HCT-15)?
**A.** 6.63 µM

**Q.** And the LC50 (HCT-15)?
**A.** 100 µM

**Q.** What about the TGI (HCT-15) of the same molecule?
**A.** 41.2 µM

**Q.** What about the GI50 (HL-60(TB)) of the same molecule?
**A.** 6.39 µM

**Q.** And the LC50 (HL-60(TB))?
**A.** 100 µM

**Q.** And the TGI (HL-60(TB))?
**A.** 100 µM

**Q.** What about the GI50 (OVCAR-5) of the same molecule?
**A.** 6 µM

**Q.** And the TGI (OVCAR-5)?
**A.** 24.5 µM

**Q.** What about the CC50 (OVCAR-5) of the same molecule?
**A.** 77.8 µM

**Q.** For `c1ccc(C(c2ccc(N3CCOCC3)cc2)C23CC4CC(CC(C4)C2)C3)cc1` (stereo not given), which IC50 [1] is on record?
**A.** > 10 µM

**Q.** And the LC50 (BXPC-3)?
**A.** 100 µM

**Q.** And the TGI (BXPC-3)?
**A.** 100 µM

**Q.** And the TGI (MCF7)?
**A.** 100 µM

**Q.** What about the CC50 (MCF7) of the same molecule?
**A.** 100 µM

**Q.** And the CC50 (SF-268)?
**A.** 100 µM

**Q.** What about the LC50 (concentration killing 50% of cells) (NCI-H460) of the same molecule?
**A.** 100 µM

**Q.** What about the TGI (NCI-H460) of the same molecule?
**A.** 100 µM

**Q.** What about the IC50 [4] of the same molecule?
**A.** > 0.1 µM

**Q.** And the TGI (HCT-116)?
**A.** 100 µM

**Q.** What about the CC50 (HCT-116) of the same molecule?
**A.** 100 µM

**Q.** What about the IC50 [6] of the same molecule?
**A.** > 1 µM

**Q.** And the TGI (OVCAR-5)?
**A.** 100 µM

**Q.** What about the CC50 (OVCAR-5) of the same molecule?
**A.** 100 µM
